Earlier results on six compounds are cited in patent publication US20220339166A1, “POST COVID19 VACCINE REMEDIES” (priority 2021, published 2022).

SMILES strings stand for the structures. Read-outs that look alike come from different tables or passages of the source.

The subject of one data set is mouse bone marrow. As to conditions: in vivo.
The next data set has as its target ACE2 (Homo sapiens, UniProt Q9BYF1).
In the next data set the target is ODC (Homo sapiens, UniProt P11926).
ODC, sequence (P11926 whole entry): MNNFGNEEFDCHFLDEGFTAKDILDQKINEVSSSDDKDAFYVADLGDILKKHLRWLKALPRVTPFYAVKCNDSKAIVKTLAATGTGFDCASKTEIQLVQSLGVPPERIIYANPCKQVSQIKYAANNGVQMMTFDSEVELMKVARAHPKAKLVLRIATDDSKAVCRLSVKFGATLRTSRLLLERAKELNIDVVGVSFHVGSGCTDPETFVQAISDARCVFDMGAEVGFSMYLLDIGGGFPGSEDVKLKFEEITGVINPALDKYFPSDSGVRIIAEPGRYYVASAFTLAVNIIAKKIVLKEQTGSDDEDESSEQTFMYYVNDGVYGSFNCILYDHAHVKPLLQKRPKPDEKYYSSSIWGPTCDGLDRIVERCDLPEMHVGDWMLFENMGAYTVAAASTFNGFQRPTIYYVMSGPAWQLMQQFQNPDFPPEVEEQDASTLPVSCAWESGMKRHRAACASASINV

ACE2, sequence (Q9BYF1 18-805): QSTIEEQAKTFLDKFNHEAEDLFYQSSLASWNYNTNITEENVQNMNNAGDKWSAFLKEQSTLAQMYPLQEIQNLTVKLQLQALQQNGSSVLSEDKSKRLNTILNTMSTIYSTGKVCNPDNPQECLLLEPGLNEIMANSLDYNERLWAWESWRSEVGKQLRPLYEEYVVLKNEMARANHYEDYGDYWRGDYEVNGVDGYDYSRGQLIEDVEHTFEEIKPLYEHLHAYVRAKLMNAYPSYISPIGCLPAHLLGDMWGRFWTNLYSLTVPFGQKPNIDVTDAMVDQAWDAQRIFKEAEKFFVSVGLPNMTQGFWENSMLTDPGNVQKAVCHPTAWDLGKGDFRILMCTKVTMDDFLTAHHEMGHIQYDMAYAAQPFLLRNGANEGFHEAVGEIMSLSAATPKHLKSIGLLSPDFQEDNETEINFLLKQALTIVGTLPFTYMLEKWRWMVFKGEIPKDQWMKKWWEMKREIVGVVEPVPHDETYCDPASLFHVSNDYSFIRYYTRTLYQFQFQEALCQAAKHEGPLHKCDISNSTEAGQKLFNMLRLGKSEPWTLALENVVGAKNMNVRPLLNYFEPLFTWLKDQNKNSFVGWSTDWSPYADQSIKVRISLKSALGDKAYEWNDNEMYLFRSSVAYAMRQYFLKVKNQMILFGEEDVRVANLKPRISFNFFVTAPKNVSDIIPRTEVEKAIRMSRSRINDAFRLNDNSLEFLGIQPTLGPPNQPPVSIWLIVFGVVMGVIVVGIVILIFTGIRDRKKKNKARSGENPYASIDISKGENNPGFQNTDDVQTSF

With `NCCS` [Cysteamine], in the data set with mouse bone marrow, the DNA synthesis result is on record as “inhibits DNA synthesis”.
Regarding `O=C([O-])O.[Na+]` [sodium bicarbonate], the “reduction of ACE2 affinity and interference with fusion domain for S1 spike protein” value on ACE2 is reported as 17%.
Consider `O=C(Cn1ccnc1[N+](=O)[O-])NCc1ccccc1` [benznidazole], for which the effective in curing with Trypanosoma cruzi (given soon after infection, at the onset of the acute phase) is about 100%.
For `NCCCC(N)(C(=O)O)C(F)F` (stereo not drawn) [DFMO], the “stalls DNA synthesis” value at ODC is 70-80%.
Consider `NCCCC[C@H](N)C(=O)O` [lysine], for which the “reduction of ACE2 affinity and interference with fusion domain for S1 spike protein” value at ACE2 is 10%.
As for `CC1CS(=O)(=O)CCN1/N=C/c1ccc([N+](=O)[O-])o1` (stereo not drawn) [nifurtimox], in the data set on Trypanosoma cruzi (in vivo), the effective in curing is listed as about 100%.
